Measured values published in patent US20260183302A1, “PDK1 REGULATORY COMPOUND AND COMPOSITION CONTAINING THE SAME” (PROVIBIO CO., LTD., priority 2024, published 2026).

Test system: T cells isolated from mouse spleens
Experiment: T cell proliferation inhibition (CFSE flow cytometry, anti-CD3/anti-CD28 stimulation)
Assay type: cell-based, C57BL/6 mice
Conditions: three days
Method: To verify the T cell proliferation inhibitory effect of the compounds according to the present invention, the following experiment was performed based on flow cytometry analysis using carboxyfluorescein diacetate succinimidyl ester (CFSE), a fluorescent dye that binds to intracellular molecules via covalent bonds.
Spleens were extracted from 7-week-old C57BL/6 mice, ground, and then separated into single cells using a strainer (40 μm pore size, SPL). Red blood cells were removed using ACK (Ammonium-Chloride-Potassium) lysis buffer to isolate white blood cells.
Finally, using a MACS Magnetic Stand and LS column, T cells were isolated from the spleen.
The T cells isolated from the spleen were resuspended in 1 mL of free medium (RPMI-1640+200 U/mL penicillin+200 μg/mL streptomycin), and 0.3 μL of CFSE (10 mM) was added. The mixture was incubated at 37° C. for 5 minutes.
Free medium (10 mL) was added to stop the reaction, and the cells were centrifuged to obtain the cell pellet.
RPMI 1640 medium containing 10% FBS, 100 U/mL penicillin, 100 μg/mL streptomycin, and resuspended the cells. The cells were then seeded into a 96-well plate at a density of 2× 10^5 cells per well and activated with CD3 and CD28 antibodies (0.5 μg/mL each) to activate T cells.
The compound diluted in DMSO was added at concentrations of 10 nM, 100 nM, 1 μM, 10 μM, 30 μM, and 50 μM, with three wells per concentration, and cultured at 37° C. and 5% CO2 for three days. The cells were then analyzed using a FACS Canto instrument.
The proliferation inhibition rate (%) was calculated using the following formula: […]

CC(C)(C)OC(=O)N1CCN(CCCCCCCCCCCCNC(=O)c2cccnc2N)CC1 [Compound 111, tert-butyl-4-(12-(2-aminonicotinamido)dodecyl) piperazine-1-carboxylate]
Proliferation inhibition rate (%) (concentration 10 nM): 0.00% | Proliferation inhibition rate (%) (concentration 100 nM): 100.00% | Proliferation inhibition rate (%) (concentration 1 μM): 100.00% | Proliferation inhibition rate (%) (concentration 10 μM): 100.00% | Proliferation inhibition rate (%) (concentration 30 μM): 100.00% | Proliferation inhibition rate (%) (concentration 50 μM): 100.00%

CN1CCN(CCCCCCCCCCCCNC(=O)c2ccc(F)cn2)CC1 [Compound 203, 5-Fluoro-N-(12-(4-methylpiperazin-1-yl)dodecyl) picolinamide]
Proliferation inhibition rate (%) (concentration 10 nM): −4.49% | Proliferation inhibition rate (%) (concentration 100 nM): 1.16% | Proliferation inhibition rate (%) (concentration 1 μM): 6.80% | Proliferation inhibition rate (%) (concentration 10 μM): 100.00% | Proliferation inhibition rate (%) (concentration 30 μM): 100.00% | Proliferation inhibition rate (%) (concentration 50 μM): 100.00%

COc1ccc(C(=O)NCCCCCCCCCCCCN2CCN(C)CC2)nc1 [Compound 204, 5-methoxy-N-(12-(4-methylpiperazin-1-yl)dodecyl) picolinamide]
Proliferation inhibition rate (%) (concentration 10 nM): −2.60% | Proliferation inhibition rate (%) (concentration 100 nM): −0.14% | Proliferation inhibition rate (%) (concentration 1 μM): 12.30% | Proliferation inhibition rate (%) (concentration 10 μM): 95.01% | Proliferation inhibition rate (%) (concentration 30 μM): 100.00% | Proliferation inhibition rate (%) (concentration 50 μM): 100.00%

CC(C)(C)OC(=O)NC1CCN(CCCCCCCCCCCCNC(=O)c2cccnc2N)CC1 [Compound 101, tert-Butyl (1-(12-(2-aminonicotinamido)dodecyl)piperidin-4-yl) carbamate]
Proliferation inhibition rate (%) (concentration 10 nM): −0.15% | Proliferation inhibition rate (%) (concentration 100 nM): 100.00% | Proliferation inhibition rate (%) (concentration 1 μM): 100.00% | Proliferation inhibition rate (%) (concentration 10 μM): 100.00% | Proliferation inhibition rate (%) (concentration 30 μM): 100.00% | Proliferation inhibition rate (%) (concentration 50 μM): 100.00%

Nc1ncccc1C(=O)NCCCCCCCCCCCCN1CCc2ccccc2C1 [Compound 17, 2-Amino-N-(12-(3,4-dihydroisoquinolin-2 (1H)-yl)dodecyl) nicotinamide]
Proliferation inhibition rate (%) (concentration 10 nM, listed as PBK-2024-004, 0.01 µM): 0.00% | Proliferation inhibition rate (%) (concentration 100 nM, listed as PBK-2024-004, 0.1 µM): −14.00% | Proliferation inhibition rate (%) (concentration 1 μM, listed as PBK-2024-004, 1 µM): 100.00% | Proliferation inhibition rate (%) (concentration 10 μM, listed as PBK-2024-004, 10 µM): 100.00%

COC(=O)C1CCN(CCCCCCCCCCCCNC(=O)c2cccnc2N)C1 (centres unmarked) [Compound 116, Methyl-1-(12-(2-aminonicotinamido)dodecyl)pyrrolidine-3-carboxylate]
inhibition at 0.01 µM (Mus musculus, T-cell, 72 h, concentration 10 nM, read-out: Proliferation inhibition rate (%)): -1.9% | inhibition at 0.1 µM (Mus musculus, T-cell, 72 h, concentration 100 nM, read-out: Proliferation inhibition rate (%)): 26.2% | inhibition at 1 µM (Mus musculus, T-cell, 72 h, concentration 1 μM, read-out: Proliferation inhibition rate (%)): 100% | inhibition at 10 µM (Mus musculus, T-cell, 72 h, concentration 10 μM, read-out: Proliferation inhibition rate (%)): 100% | inhibition at 30 µM (Mus musculus, T-cell, 72 h, concentration 30 μM, read-out: Proliferation inhibition rate (%)): 100% | inhibition at 50 µM (Mus musculus, T-cell, 72 h, concentration 50 μM, read-out: Proliferation inhibition rate (%)): 100%

Nc1ncccc1C(=O)NCCCCCCCCCCCCN1CCC(O)CC1 [Compound 48, 2-Amino-N-(12-(4-hydroxypiperidin-1-yl)dodecyl) nicotinamide]
Proliferation inhibition rate (%) (concentration 100 nM): 100.00% | Proliferation inhibition rate (%) (concentration 1 μM): 100.00% | Proliferation inhibition rate (%) (concentration 10 μM): 100.00% | Proliferation inhibition rate (%) (concentration 30 μM): 100.00% | Proliferation inhibition rate (%) (concentration 50 μM): 100.00%

Nc1ncccc1C(=O)NCCCCCCCCCCCCN1CCOC1=O [Compound 127, 2-amino-N-(12-(2-oxooxazolidin-3-yl)dodecyl) nicotinamide]
Proliferation inhibition rate (%) (concentration 10 μM): 100.00% | Proliferation inhibition rate (%) (concentration 30 μM): 100.00% | Proliferation inhibition rate (%) (concentration 50 μM): 100.00%

Nc1ncccc1C(=O)NCCCCCCCCCCCCN1CCC2CCCCC2C1 (centres unmarked) [Compound 16, 2-Amino-N-(12-(octahydroisoquinolin-2 (1H)-yl)dodecyl) nicotinamide]
Proliferation inhibition rate (%) (concentration 1 μM): 100.00% | Proliferation inhibition rate (%) (concentration 10 μM): 100.00% | Proliferation inhibition rate (%) (concentration 30 μM): 100.00% | Proliferation inhibition rate (%) (concentration 50 μM): 100.00%

CN1CCN(CCCCCCCCCCCCNC(=O)c2ccnc(Cl)c2Cl)CC1 [Compound 198, 2,3-Dichloro-N-(12-(4-methylpiperazin-1-yl)dodecyl) isonicotinamide]
Proliferation inhibition rate (%) (concentration 10 nM): 5.35% | Proliferation inhibition rate (%) (concentration 100 nM): 9.41% | Proliferation inhibition rate (%) (concentration 1 μM): 20.12% | Proliferation inhibition rate (%) (concentration 10 μM): 100.00% | Proliferation inhibition rate (%) (concentration 30 μM): 100.00% | Proliferation inhibition rate (%) (concentration 50 μM): 100.00%

CN1CCN(CCCCCCCCCCCCNC(=O)c2c(Cl)cncc2Cl)CC1 [Compound 201, 3,5-Dichloro-N-(12-(4-methylpiperazin-1-yl)dodecyl) isonicotinamide]
Proliferation inhibition rate (%) (concentration 10 nM): 7.24% | Proliferation inhibition rate (%) (concentration 100 nM): 6.66% | Proliferation inhibition rate (%) (concentration 1 μM): 8.54% | Proliferation inhibition rate (%) (concentration 10 μM): 78.44% | Proliferation inhibition rate (%) (concentration 30 μM): 100.00% | Proliferation inhibition rate (%) (concentration 50 μM): 100.00%

CN(CCCCCCCCCCCCNC(=O)c1cccnc1N)C(C)(C)C [Compound 53, 2-Amino-N-(12-(tert-butyl(methyl)amino)dodecyl) nicotinamide]
Proliferation inhibition rate (%) (concentration 100 nM): 100.00% | Proliferation inhibition rate (%) (concentration 1 μM): 100.00% | Proliferation inhibition rate (%) (concentration 10 μM): 100.00% | Proliferation inhibition rate (%) (concentration 30 μM): 100.00% | Proliferation inhibition rate (%) (concentration 50 μM): 100.00%

Nc1ncccc1C(=O)NCCCCCCCCCCCCN1CCN(C=O)CC1 [Compound 97, 2-amino-N-(12-(4-formylpiperazin-1-yl)dodecyl) nicotinamide]
Proliferation inhibition rate (%) (concentration 1 μM): 100.00% | Proliferation inhibition rate (%) (concentration 10 μM): 100.00% | Proliferation inhibition rate (%) (concentration 30 μM): 100.00% | Proliferation inhibition rate (%) (concentration 50 μM): 100.00%

CN1CCN(CCCCCCCCCCCCNC(=O)c2ccncc2N)CC1 [Compound 209, 3-Amino-N-(12-(4-methylpiperazin-1-yl)dodecyl) isonicotinamide]
Proliferation inhibition rate (%) (concentration 10 nM): −1.45% | Proliferation inhibition rate (%) (concentration 100 nM): 1.59% | Proliferation inhibition rate (%) (concentration 1 μM): 18.81% | Proliferation inhibition rate (%) (concentration 10 μM): 84.52% | Proliferation inhibition rate (%) (concentration 30 μM): 100.00% | Proliferation inhibition rate (%) (concentration 50 μM): 100.00%

CN1CCN(CCCCCCCCCCCCNC(=O)c2ccncc2Cl)CC1 [Compound 199, 3-Chloro-N-(12-(4-methylpiperazin-1-yl)dodecyl) isonicotinamide]
Proliferation inhibition rate (%) (concentration 10 nM): 0.00% | Proliferation inhibition rate (%) (concentration 100 nM): 0.00% | Proliferation inhibition rate (%) (concentration 1 μM): 0.00% | Proliferation inhibition rate (%) (concentration 10 μM): 40.00% | Proliferation inhibition rate (%) (concentration 30 μM): 100.00% | Proliferation inhibition rate (%) (concentration 50 μM): 100.00%

COC1CCN(CCCCCCCCCCCCNC(=O)c2cccnc2N)CC1 [Compound 94, 2-amino-N-(12-(4-methoxypiperidin-1-yl)dodecyl) nicotinamide]
Proliferation inhibition rate (%) (concentration 100 nM): 100.00% | Proliferation inhibition rate (%) (concentration 1 μM): 100.00% | Proliferation inhibition rate (%) (concentration 10 μM): 100.00% | Proliferation inhibition rate (%) (concentration 30 μM): 100.00% | Proliferation inhibition rate (%) (concentration 50 μM): 100.00%

CC(C)N1CCN(CCCCCCCCCCCCNC(=O)c2cccnc2N)CC1 [Compound 104, 2-Amino-N-(12-(4-isopropylpiperazin-1-yl)dodecyl) nicotinamide]
Proliferation inhibition rate (%) (concentration 10 nM): 100.00% | Proliferation inhibition rate (%) (concentration 100 nM): 100.00% | Proliferation inhibition rate (%) (concentration 1 μM): 100.00% | Proliferation inhibition rate (%) (concentration 10 μM): 100.00% | Proliferation inhibition rate (%) (concentration 30 μM): 100.00% | Proliferation inhibition rate (%) (concentration 50 μM): 100.00%

Nc1ncccc1C(=O)NCCCCCCCCCCCCNC1CCOC1 (centres unmarked) [Compound 128, 2-amino-N-(12-((tetrahydrofuran-3-yl)amino)dodecyl) nicotinamide]
Proliferation inhibition rate (%) (concentration 100 nM): 100.00% | Proliferation inhibition rate (%) (concentration 1 μM): 100.00% | Proliferation inhibition rate (%) (concentration 10 μM): 100.00% | Proliferation inhibition rate (%) (concentration 30 μM): 100.00% | Proliferation inhibition rate (%) (concentration 50 μM): 100.00%

CC1CN(CCCCCCCCCCCCNC(=O)c2cccnc2N)C(C)CN1.Cl (centres unmarked) [Compound 36, 2-Amino-N-(12-(2,5-dimethylpiperazin-1-yl)dodecyl) nicotinamide hydrochloride]
Proliferation inhibition rate (%) (concentration 100 nM): 100.00% | Proliferation inhibition rate (%) (concentration 1 μM): 100.00% | Proliferation inhibition rate (%) (concentration 10 μM): 100.00% | Proliferation inhibition rate (%) (concentration 30 μM): 100.00% | Proliferation inhibition rate (%) (concentration 50 μM): 100.00%

CC(C)(C)OC(=O)N[C@@H]1CCCN(CCCCCCCCCCCCNC(=O)c2cccnc2N)C1 [Compound 117, tert-butyl-(R)-(1-(12-(2-aminonicotinamido)dodecyl)piperidin-3-yl) carbamate]
Proliferation inhibition rate (%) (concentration 100 nM): 100.00% | Proliferation inhibition rate (%) (concentration 1 μM): 100.00% | Proliferation inhibition rate (%) (concentration 10 μM): 100.00% | Proliferation inhibition rate (%) (concentration 30 μM): 100.00% | Proliferation inhibition rate (%) (concentration 50 μM): 100.00%

CN(CCCCCCCCCCCCNC(=O)c1cccnc1N)C1CCCCC1 [Compound 34, 2-Amino-N-(12-(cyclohexyl(methyl)amino)dodecyl) nicotinamide]
Proliferation inhibition rate (%) (concentration 100 nM): 100.00% | Proliferation inhibition rate (%) (concentration 1 μM): 100.00% | Proliferation inhibition rate (%) (concentration 10 μM): 100.00% | Proliferation inhibition rate (%) (concentration 30 μM): 100.00% | Proliferation inhibition rate (%) (concentration 50 μM): 100.00%
